Test results taken from patent publication US20180298053A1, “ANTIBIOTIC OLIGOPEPTIDES” (priority 2017, published 2018).
Where a name gives a salt, the structure may show the parent alone. Square brackets hold non-standard residues; d marks the D form. Peptide text beside a SMILES is read from it. * marks the point of attachment. ξ: configuration not given here. ξF = NC(Cc1ccccc1)C(=O)O; NHOH = ON*

Test system: E. coli (ATTC 8739)
Assay: Zone of inhibition test
Format: cell-based
Conditions: at 12.5 μg, FIG. 1B
Description: Compound A was tested against L-phenylalanine-(S)-2-amino-N-hydroxy-4-(methylthio)butanamide hydrochloride (Example 3) in a side-by-side comparison in a conventional zone of inhibition test. In this test, both compounds were compared at various concentrations against E. coli (ATTC 8739) grown in a Petri dish using the antibiotic kanamycin as a control.

CSCC[C@H](NC(=O)C(N)Cc1ccccc1)C(=O)NO (stereo partly drawn) [Example 3, L-phenylalanine-(S)-2-amino-N-hydroxy-4-(methylthio)butanamide Hydrochloride] (H-[ξF]-Met-{NHOH})
strength of zone of inhibition compared with cpd. A at 50 μg: substantially stronger
